Data: publication PMC10820527, “Synthesis, Characterization, and Investigation of Anti-Inflammatory and Cytotoxic Activities of Novel Thiourea Derivatives of Naproxen” (Pharmaceutics, 2023)

Experiments:
[1] = Annexin V/PI flow cytometry (type of cell death); format: cell-based, human; conditions: human; HeLa cells, 24 h, IC50 concentration; representative plot; read-out: viable cells (Q4, lower left quadrant)
Description: (§1) The type of cell death induced by compounds 3 and 8 was determined by the annexin V–fluorescein isothiocyanate (FITC)/propidium iodide (PI) Apoptosis Kit (BD Biosciences, Franklin Lakes, NJ, USA). […] Furthermore, tested HeLa cells were trypsinized, washed in PBS, centrifuged, and resuspended in 100 μL of ice-cold binding buffer. The tested cells were then stained with both 10 μL of Annexin V-FITC and 20 μL of […], incubated for 15 min in the dark at room temperature, and 400 μL of binding buffer was added to each tube. The obtained samples were measured with a flow cytometer Cytomics FC500 (Beckman Coulter, Brea, CA, USA). In addition, the obtained data were analyzed using FlowJo V10 Software. Measurements were presented as the representative density plots of Annexin V-FITC and PI staining and the average values of three independent experiments.

HeLa cells [2] = test: Annexin V/PI flow cytometry (type of cell death); format: cell-based, human
Description: as §1

[3] = system: antiapoptotic protein Bcl-2; test: Assessment of apoptosis: Bcl-2 expression (flow cytometry); format: cell-based, human; conditions: HeLa cells, 24 h, IC50 concentration, p > 0.05
Description: (§2) The aim of this study was to determine the expression of proteins that play a key role in apoptosis. The level of expression of the proapoptotic protein Bax, antiapoptotic protein Bcl-2, and the percentage of cells containing active caspase-3 was evaluated. […] Additionally, HeLa cells were fixed, permeabilized, and rinsed with ice-cold PBS (Fixation and Permeabilization Kit, eBioscience, San Diego, CA, USA). The cells were treated for 15 min at room temperature with a 1:1000 Bcl-2 fluorescein isothiocyanate (FITC) primary antibody (mhbcl01, Life Technologies, Carlsbad, CA, USA) to stain them. For further labeling, permeabilized HeLa cells were incubated with primary antibodies for active-Bax (N20, sc-493; Santa Cruz Biotech Inc., Dallas, TX, USA) and cleaved caspase-3 (#9661, Cell signaling Technology, Danvers, MA, USA) at a ratio of 1:1000 for 30 min. […] With the FC500 (Beckman Coulter), fluorescence of at least 15,000 events/samples had been measured. Negative control antibodies that matched the isotype were used to normalize the fluorescence intensity. The degree of expression of these proteins was indicated by the mean fluorescence intensities for Bax and Bcl-2 (MFIs), which were computed as the ratio of raw mean channel fluorescence to isotype control levels, respectively. […]

proapoptotic protein Bax = test: Assessment of apoptosis: active Bax expression (flow cytometry); format: cell-based, human; conditions: HeLa cells, 24 h, IC50 concentration, p > 0.05
Description: as §2

HCT 116 = test: MTT cytotoxicity assay, HCT 116; format: cell-based, human; conditions: for IC50: Homo sapiens, mean ± SD
Description: (§3) Three cancer cell lines (MDA-MB-231, HCT116 and HeLa; i.e., human breast cancer cells, human colorectal cancer cells, and human cervical cancer cells, respectively), and one non-malignant fibroblast MRC-5 cell line (control) were used in this study. The American Type Cell Collection (ATCC, Manassas, VA, USA) provided all examined cell lines. The cells were grown in a complete medium made up of high-glucose DMEM media supplemented with 10% fetal bovine serum and […] L-glutamine (both from Sigma-Aldrich, USA). The cells were cultured in 25 cc flasks (Thermo Fischer Scientific, Waltham, MA, USA) at 37 °C with 100% humidity in a 5% CO2 atmosphere.
(§4) The MTT test was used to assess the cytotoxicity of compounds 1–14 [44]. The cytotoxicity of naproxen was also investigated due to its clinical use and structural similarity. Throughout the exponential development period, cells were taken from culture flasks and counted, and 5 × 10^3 cells/well were planted into 96-well culture plates. Following that, the cell lines were treated with varying doses of the investigated chemicals (1–14), naproxen ([…]), and fresh complete media as a control. All evaluated cells were incubated for 24, 48, and 72 h at 37 °C in an environment containing 5% CO2 and 100% humidity. Following incubation, each well’s culture media was taken out, each well received an addition of MTT solution at a final concentration of 0.5 mg/mL, and the cells were left to incubate for an additional four hours. The MTT solution was then withdrawn carefully, and the formazan crystals were dissolved in DMSO. After shaking the plates for 10 min, absorbance at 595 nm was measured using a multiplate reader (Zenyth 3100, Anthos Labtec Instruments, Salzburg, Austria). All concentrations of the tested compounds were performed in three separate wells of the microtiter plates and in three separate experiments. The results were reported as a ratio to the control value, untreated cells. IC50 values were also determined using Microsoft Office Excel 2021. The percentage of viable cells was estimated by dividing the readout absorbance value in the wells containing treated cells by the average absorbance value measured in the wells containing untreated cells, and multiplying the result by 100 [44]. % of the viable cells = ((absorbance of treated cell-absorbance of blank)/(absorbance of untreated cell-absorbance of blank)) × 100(3)

active caspase-3 = test: Assessment of apoptosis: cells containing active caspase-3 (flow cytometry); format: cell-based, human; conditions: HeLa cells, 24 h, IC50 concentration, p < 0.05
Description: as §2

[4] = system: MRC-5 fibroblast cell line; test: MTT cytotoxicity assay, MRC-5; format: cell-based; conditions: Homo sapiens, mean ± SD
Description: as §3, §4

HeLa cells [5] = test: Cell cycle analysis (PI staining, flow cytometry); format: cell-based, human; conditions: 24 h, IC50 concentration, p < 0.05
Description: The next step in this study was to evaluate whether the rate of division of HeLa tumor cells slows down under the influence of tested compounds. To examine the potential effect of compounds 3 and 8 on the cell cycle of HeLa cells, the cell line was incubated and treated with previously calculated IC50 values. The control population of untreated cells was also harvested and washed in the above-mentioned manner. Furthermore, HeLa cells were harvested, washed with PBS, and fixed with 70% ethanol at +4 °C. Cells were agglomerated and finally resuspended in 1 mL PBS containing RNAse A (500 μg/mL). After 30 min of incubation, cells were stained with 5 μL PI (10 mg/mL PBS). After 15 min of incubation in the dark, the samples were examined using a Beckman Coulter FC500 flow cytometer.

| Structure (SMILES) | viability at 24 h [1] [%] | Type of HeLa cell death induced (in words) (HeLa cells [2]; 24 h of treatment, p < 0.05) | late apoptotic cells (Q2, upper right quadrant) (HeLa cells [2]; HeLa cells, 24 h, IC50 concentration, Annexin V-FITC/PI) | Amount of the antiapoptotic protein Bcl-2 (in words) [3] | Amount of proapoptotic Bax (in words) (proapoptotic protein Bax) | IC50 (HCT 116; HCT-116, 24 h) [µM] | IC50 (HCT 116; HCT-116, 48 h) [µM] | IC50 (HCT 116; HCT-116, 72 h) [µM] | Percentage of cells containing active caspase-3 (in words) (active caspase-3) | IC50 ([4]; MRC5, 24 h) [µM] | IC50 ([4]; MRC5, 48 h) [µM] | IC50 ([4]; MRC5, 72 h) [µM] | Effect on cell cycle of HeLa cells (in words) (HeLa cells [5]) | Cytotoxic effect against the HCT 116 cell line (in words) (HCT 116) |
| --- | --- | --- | --- | --- | --- | --- | --- | --- | --- | --- | --- | --- | --- | --- |
| COc1ccc2cc([C@H](C)C(=O)NC(=S)Nc3ccccc3)ccc2c1 [Compound 8, (S)-2-(6-methoxynaphthalen-2-yl)-N-(phenylcarbamothioyl)propanamide] | 49.2 | induced apoptosis | 1–3% | insignificantly changed | insignificantly changed | > 200 | > 200 | 101 ± 15.5 | increased compared to the untreated cells | > 200 | > 200 | > 200 | induced G0/G1 phase arrest |  |
| COc1ccc2cc([C@H](C)C(=O)NC(=S)Nc3ccc(C)cc3)ccc2c1 [Compound 9, (S)-2-(6-methoxynaphthalen-2-yl)-N-(p-tolylcarbamothioyl)propanamide] |  |  |  |  |  | > 200 | 105 ± 14.8 | 52.9 ± 8.1 |  | > 200 | > 200 | > 200 |  | moderate cytotoxic effects |
| COc1ccc2cc([C@H](C)C(=O)NC(=S)Nc3ccccc3C)ccc2c1 [Compound 10, (S)-2-(6-methoxynaphthalen-2-yl)-N-(o-tolylcarbamothioyl)propanamide] |  |  |  |  |  | 120 ± 8.8 | 97.2 ± 6.8 | 33.3 ± 5.5 |  | > 200 | > 200 | > 200 |  | moderate cytotoxic effects |
| COc1ccc2cc([C@H](C)C(=O)NC(=S)Nc3ccccc3OC)ccc2c1 [Compound 11, (S)-2-(6-methoxynaphthalen-2-yl)-N-((2-methoxyphenyl)carbamothioyl)propanamide] |  |  |  |  |  | > 200 | > 200 | > 200 |  | > 200 | > 200 | > 200 |  |  |
| COc1ccc2cc([C@H](C)C(=O)NC(=S)Nc3ccccc3F)ccc2c1 [Compound 12, (S)-N-((2-fluorophenyl)carbamothioyl)-2-(6-methoxynaphthalen-2-yl)propanamide] |  |  |  |  |  | > 200 | 159 ± 17.5 | 68.8 ± 9.5 |  | > 200 | > 200 | > 200 |  | moderate cytotoxic effects |
| COC(=O)[C@H](Cc1ccccc1)NC(=S)NC(=O)[C@@H](C)c1ccc2cc(OC)ccc2c1 [Compound 13, Methyl (((S)-2-(6-methoxynaphthalen-2-yl)propanoyl)carbamothioyl)phenylalaninate] |  |  |  |  |  | > 200 | > 200 | 99.6 ± 4.9 |  | > 200 | > 200 | > 200 |  |  |
| COC(=O)[C@H](Cc1c[nH]c2ccccc12)NC(=S)NC(=O)[C@@H](C)c1ccc2cc(OC)ccc2c1 [Compound 14, Methyl (((S)-2-(6-methoxynaphthalen-2-yl)propanoyl)carbamothioyl)tryptophanate] |  |  |  |  |  | 150 ± 7.6 | 108 ± 12.7 | 47.1 ± 5.4 |  | > 200 | > 200 | > 200 |  | moderate cytotoxic effects |
